Results: patent US6362134B1, “Herbicidal 1,2,4,6-thiatriazines” (Syngenta Investment Corporation, priority 1996, dated 2002)

Experiments:
Setaria = experiment: Herbicidal action before emergence of the plants (pre-emergent action); assay type: in vivo; parameters: key: 1=complete damage; 9=no action; Ratings of 1 to 4 (in particular 1 to 3) mean a good to very good herbicidal action; conditions: 2000 g of active substance/ha, sprayed immediately after sowing, evaluated after 3 weeks, ratings scale of nine levels
Description: (§1) Monocotyledon and dicotyledon test plants are sown in standard soil in plastic pots. Immediately after sowing, the test substances are sprayed on (500 l of water/ha) in an aqueous suspension prepared from a 25% wettable powder (Example F3, b)), corresponding to a dosage of 2000 g of active substance/ha. The test plants are then grown under optimum conditions in a greenhouse. After a test period of 3 weeks, the test is evaluated with a ratings scale of nine levels (1=complete damage, 9=no action). Ratings of 1 to 4 (in particular 1 to 3) mean a good to very good herbicidal action.
(§2) Test plants: Avena, Setaria, Sinapis, Stellaria

Sinapis [1] = experiment: as above; assay type: in vivo; parameters: key: 1=complete damage; 9=no action; Ratings of 1 to 4 (in particular 1 to 3) mean a good to very good herbicidal action; conditions: 2000 g of active substance/ha, sprayed immediately after sowing, evaluated after 3 weeks, ratings scale of nine levels
Description: as §1, §2

Stellaria [2] = experiment: as above; assay type: in vivo; parameters: key: 1=complete damage; 9=no action; Ratings of 1 to 4 (in particular 1 to 3) mean a good to very good herbicidal action; conditions: 2000 g of active substance/ha, sprayed immediately after sowing, evaluated after 3 weeks, ratings scale of nine levels
Description: as §1, §2

Avena = experiment: as above; assay type: in vivo; conditions: 2000 g of active substance/ha, sprayed immediately after sowing, evaluated after 3 weeks, ratings scale of nine levels (1=complete damage, 9=no action)
Description: as §1, §2

Sinapis [3] = experiment: Post-emergent herbicidal action (contact herbicide); assay type: in vivo; parameters: key: 1=complete damage; 9=no action; Ratings of 1 to 4 (in particular 1 to 3) mean a good to very good herbicidal action; conditions: 2000 g of active substance/ha, sprayed in the 4- to 6-leaf stage, evaluated after about 18 days, ratings scale 1-9
Description: (§3) Monocotyledon and dicotyledon test plants are grown in plastic pots with standard soil in a greenhouse and, in the 4- to 6-leaf stage, are sprayed with an aqueous suspension of the test substances of the formula 1, prepared from a 25% wettable power (Example F3, b)), corresponding to a dosage of 2000 g of active substance/ha (500 l of water/ha). The test plants are then grown further in the greenhouse under optimum conditions. After a test period of about 18 days, the test is evaluated with a ratings scale of 9 levels (1=complete damage, 9=no action). Ratings of 1 to 4 (in particular 1 to 3) mean a good to very good herbicidal action.
(§4) Test plants: Sinapis, Stellaria

Stellaria [4] = experiment: as above; assay type: in vivo; parameters: key: 1=complete damage; 9=no action; Ratings of 1 to 4 (in particular 1 to 3) mean a good to very good herbicidal action; conditions: 2000 g of active substance/ha, sprayed in the 4- to 6-leaf stage, evaluated after about 18 days, ratings scale 1-9
Description: as §3, §4

[5] = Stability of the isolated compound when left to stand; assay type: physicochemical; conditions: isolated product
Description: 4.09 g (0.02 mol) of 1,3,5-trichlorothiatriazine are stirred as a suspension in 50 ml of carbon tetrachloride at −25° C., and a solution of 0.70 g (0.022 mol) of methanol in a little carbon tetrachloride is added dropwise. During this operation, the trichlorothiatriazine dissolves apart from a little insoluble product. The mixture is then warmed to 0° C. and filtered and the filtrate is concentrated on a rotary evaporator at a maximum of 50° C. 3.25 g of the desired product, which, according to the ^13C-NMR spectrum and thin layer chromatogram (silica gel; eluting agent ethyl acetate/hexane 1/3), contains practically no further impurities, are obtained as the residue.

Row | SMILES | Pre-emergent action, rating, Setaria (Setaria) | Pre-emergent action, rating, Sinapis (Sinapis [1]) | Pre-emergent action, rating, Stellaria (Stellaria [2]) | Pre-emergent action, rating, Avena (Avena) | Post-emergent action, rating, Sinapis (Sinapis [3]) | Post-emergent action, rating, Stellaria (Stellaria [4]) | stability when left to stand [5] | melting point
1 | NC1=NS(N2CCCCCCCC2)=NC(Oc2c(F)c(F)c(F)c(F)c2F)=N1 (stereo not shown) [6.257] | 2 | 1 | 1 | 3 | 2 | 2 | – | –
2 | CC1CC2CCCCC2N1S1=NC(N)=NC(Oc2c(F)c(F)c(F)c(F)c2F)=N1 (stereo not shown) [6.282] | 2 | 1 | 1 | 4 | 1 | 5 | – | –
3 | CC1CCN(S2=NC(N)=NC(Oc3c(F)c(F)c(F)c(F)c3F)=N2)C2CCCCC12 (stereo not shown) [6.285] | 2 | 1 | 1 | 5 | 2 | 3 | – | –
4 | CC1CC2CCCCC2N(S2=NC(N)=NC(Oc3c(F)c(F)c(F)c(F)c3F)=N2)C1 (stereo not shown) [6.292] | 1 | 1 | 1 | 5 | 2 | 3 | – | –
5 | CC1CN(S2=NC(N)=NC(Oc3c(F)c(F)c(F)c(F)c3F)=N2)C2CCCCC12 (stereo not shown) [6.295] | 1 | 1 | 1 | 3 | 1 | 3 | – | –
6 | CC1CCC2C(CCN2S2=NC(N)=NC(Oc3c(F)c(F)c(F)c(F)c3F)=N2)C1 (stereo not shown) [6.298] | 2 | 1 | 1 | 3 | 1 | 4 | – | –
7 | NC1=NS(N2CCCCCCCC2)=NC(Oc2c(F)c(F)cc(F)c2F)=N1 (stereo not shown) [6.302] | 2 | 1 | 1 | 3 | 2 | 3 | – | –
8 | COS1=NC(Cl)=NC(Cl)=N1 (stereo not shown) [Example H3, 1-methoxy-3,5-dichlorothiatriazine] | – | – | – | – | – | – | unstable and decomposes within a few hours when left to stand | –
9 | COC1=NS(OC)=NC(Oc2cc(F)ccc2F)=N1 (stereo not shown) [Example H10, 1,3-dimethoxy-5-(2′,5′-di-fluorophenoxy)thiatriazine] | – | – | – | – | – | – | – | 75 to 76 °C
10 | CC(C)OS1=NC(N)=NC(Oc2cc(F)ccc2F)=N1 (stereo not shown) [Example H14, 3-amino-1-isopropoxy-5-(2′,5′-difluorophenoxy)thiatriazine] | – | – | – | – | – | – | – | 163 to 164 °C
11 | CCCN(CCC)S1=NC(N)=NC(Oc2cc(F)ccc2F)=N1 (stereo not shown) [Example H17, 3-amino-1-dipropylamino-5-(2′,5′-difluorophenoxy)thiatriazine] | – | – | – | – | – | – | – | 184 to 185 °C
